From article PMC5538626, “Structural and functional analysis of the GABARAP interaction motif (GIM)” (EMBO Reports, 2017)
Marks after values point to notes of the source that are not given here. Ends that are not written are not given here.

How the values were obtained:
[1] = system: 6xHis-tagged LC3B and 6xHis-tagged GABARAP; experiment: Peptide array, preference GABARAP versus LC3B (absorbance ratio); type: binding, human; conditions: absorbance GABARAP/LC3B or LC3B/GABARAP, cut-off 1.5-fold; mean of n = 3; Figs 1A, EV1B and C
From the text: A high number of autophagy receptors or adaptor structures have been reported, yet the basis for their selective interaction with individual members of the ATG8 family is not well understood. We speculated whether the LIR motif alone is able to confer selectivity towards a mATG8 subfamily and whether we could derive a subfamily consensus motif from analysis of known mATG8 interaction partners. To address this question, we screened an array of peptides (presented in Fig EV1A and described in Materials and Methods) with the LIR sequences of 30 known and validated autophagy receptors and adaptors (Table 1) against all six human mATG8s for binding (Figs 1A and EV1B and C). In brief, biotinylated peptides were immobilized on streptavidin‐coated 96‐well plates and incubated with His6‐tagged mATG8 proteins. After washing steps, peptide‐bound mATG8 was detected in an ELISA reader using anti‐His antibodies directly conjugated to HRP (horse radish peroxidase; Fig EV1A).
Dashed red line depicts 1.5‐fold change cut‐off.
Due to the wide range of affinities of various LIR sequences towards the LC3/GABARAP proteins, we have normalized our results by dividing values for LC3B interaction by the corresponding value for interaction with GABARAP (Fig 1A, purple bars) and vice versa (Fig 1A, blue bars) to highlight the potential subfamily selectivity of each LIR sequence tested. We classified ratios greater than 1.5‐fold as an indication of a preferential interaction towards that particular LC3 or GABARAP family member. […] Using this information, we generated a sequence plot (Fig 1B) to ascertain whether there were any common sequence features of the GABARAP‐specific interaction proteins. In addition to the 12 sequences identified in this experiment as preferential GABARAP subfamily interactors, we also included known GABARAP interactors that were not included in our screen (ALFY and KBTBD7). […] The previously identified PLEKHM1‐LIR 19 has a high degree of similarity to this sequence. […] However, it is unclear whether this is the case in vivo.
Biotinylated peptides (JPT, Germany) were immobilized on streptavidin‐coated 96‐well plates (#436014; Thermo Scientific) in 100 μl PBS containing 0.1% Tween‐20 (PT) and 1% BSA (PTB) overnight on a shaker at 8°C. After three washing steps with 200 μl PT, 100 μl of 1 μM HIS6‐tagged mATG fusion proteins isolated from E. coli in PTB was incubated with the immobilized peptides for 1 h at 8°C. After three washing steps with 200 μl PT, HIS6‐ATG8 bound to peptides was detected after 1‐h incubation with anti‐HIS‐HRP antibody (JP‐A00612; Genscript; 1:5,000 in 100 μl PTB) with the help of TMB substrate Reagent Set (BD OptEIA; 75 μl). The reaction (blue coloration) was stopped by addition of 60 μl 1 M H3PO4. Samples were analysed on a Synergy H1 ELISA reader from BioTek at 450 nm.

[2] = target: T1, LC3B (Homo sapiens, UniProt Q9GZQ8); experiment: ITC titration of PLEKHM1-LIR peptides into LC3B; type: binding; conditions: for ΔH: VP-ITC, one-site model, 0.4 mM peptide into 0.020 mM protein, 50 mM Na2HPO4, 100 mM NaCl
T1 construct: modified Ub-leader (ubiquitin fusion leader) (N); made in house; host or cells: E. coli NEB T7 Express
Protocol: (§1) The genes for the truncated LC3A^2–121, LC3C^8–125, GABARAP^2–117 and GABARAP‐L1^2–117 proteins were cloned into pET30ΔSE vector between the BamHI and XhoI sites using previously established protocols 38. The chimeric constructs of the PLEKHM1‐LIR attached to the LC3A, GABARAP and GABARAP‐L1 proteins were prepared by inserting the oligonucleotide sequence corresponding to the PLEKHM1‐LIR peptide (P^629[…]^638) and glycine–serine linker into the BamHI site of the pET30ΔSE vector, placing the PLEKHM1‐LIR at the N‐terminal of the mature chimeric protein (similar to 31, 38). For the expression of human LC3 and GABARAP proteins for ITC and NMR experiments, plasmids with appropriate modified Ub‐leaders in pET vectors were used 39. Gene, encoding PLEKHM1‐LIR peptide, was ordered as synthetic oligonucleotides (Eurofins Genomics GmbH) and cloned into the pET39_Ub63_ vector 39 by NcoI–BamHI restriction sites. After TEV cleavage, the resulting peptide has the amino acid sequence GAMG‐P^629[…]^642, where the first four residues (GAMG) are the cloning artefact.
(§2) The chimeric constructs were expressed as a His‐tag fusion protein in E. coli BL21(DE3) cells. The cells were induced with 0.3 mM IPTG at OD600 0.6 for 16 h at 26°C. The cell pellets were lysed using mechanical sonication in lysis buffer (20 mM Tris–HCl pH 9.0, 100 mM NaCl, 10 mM imidazole, supplemented with 0.1% Triton X‐100). The proteins were purified using Ni‐NTA beads (GE Healthcare) and the His‐tag was cleaved using thrombin (Invitrogen) at room temperature for 16 h. The last step was gel filtration chromatography using a Superdex S200/300 GL column (GE Healthcare). The proteins were concentrated using spin concentrators (Vivaspin). For ITC and NMR studies, the non‐labelled and stable isotopes labelled LC3 and GABARAP proteins were obtained based on the protocols described elsewhere 30, 39. Here, E. coli NEB T7 Express culture transformed with corresponding plasmids were grown till OD600 nm = 1.0 and protein expression was induced with 0.2 mM IPTG. The cultures were incubated at 25°C for 8–12 h before cell harvesting. Isolation and purification procedures were similar to those reported in Ref. 22, 40. Before experiments, all proteins and peptides were equilibrated with a buffer containing 50 mM Na2HPO4, 100 mM NaCl at pH 7.0, and supplied with 5 mM protease inhibitor cocktail.
(§3) The protocol for preparation of non‐labelled and ^13C,^15N‐labelled PLEKHM1‐LIR peptide was slightly modified to achieve highest yield of the peptide. The 50 ml M9 culture was inoculated with NEB T7 cell transformed with pET39_Ub63‐PLEKHM1‐LIR plasmid and grown overnight at 37°. The collected cells were resuspended in 2 l of either LB or M9 media contained 1.5 g ^15N‐labelled NH4Cl and 3.0 g of ^13C‐labelled glucose. The cultures were grown at 37° till A(600 nm) = 0.9 and supplied with 1 mM of IPTG to induce Ub63‐PLEKHM1‐LIR overexpression (3 h at 37°). After that cells were harvested by centrifugation, re‐suspended in buffer contained 50 mM Tris–HCl pH = 7.9, 200 mM NaCl, 5% glycerol, 0.1 mg/ml DNase A and 4 mM protease inhibitor cocktail. After cell lysis by French press, debris was removed by centrifugation and clear supernatant was applied onto the column contained Ni‐NTA Sepharose equilibrated with the loading buffer (50 mM Tris–HCl pH = 7.9, 250 mM NaCl, 1% glycerol and 20 mM imidazole). Elution was performed with 400 mM imidazole in the same buffer. An aliquot of pure Ub63‐PLEKHM1‐LIR fractions was further purified by gel filtration on Superdex75 26 × 60 column for control ITC and analytical size exclusion chromatography experiments, remaining fusion protein was processed with the TEV‐protease and PLEKHM1‐LIR peptide was purified to 95% purity by reverse Ni‐NTA chromatography and followed gel filtration on Superdex75 26 × 60 column. Peak maximum of peptide was detected at […] (void volume 115 ml). Pure peptide was concentrated in Amicon concentrators with cut‐off of 3 kDa (> 95% retention). […]

[3] = target: T2, GABARAP (Homo sapiens, UniProt O95166); experiment: ITC titration of PLEKHM1-LIR peptides into GABARAP; type: binding; conditions: for ΔH: VP-ITC, one-site model, 0.4 mM peptide into 0.020 mM protein, 50 mM Na2HPO4, 100 mM NaCl
T2 construct: modified Ub-leader (ubiquitin fusion leader) (N); made in house; host or cells: E. coli NEB T7 Express
T2 sequence (O95166 whole entry, the tested form may be a part): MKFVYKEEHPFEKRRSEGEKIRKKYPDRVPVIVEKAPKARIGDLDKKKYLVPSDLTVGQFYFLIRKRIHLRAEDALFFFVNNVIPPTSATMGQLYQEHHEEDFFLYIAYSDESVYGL
Protocol: as §1, §2, §3

[4] = system: LC3 and GABARAP families; conditions: cited from earlier work
From the text: However, despite the ever‐increasing number of LC3/GABARAP interaction partners identified and perhaps the over‐reliance on LC3B as the main marker of autophagosomes, there is now emerging distinct roles of each LC3 and GABARAP subfamily. For example, both LC3 and GABARAP families are essential for autophagy flux 29; however, LC3s were reported to be involved in phagophore extension and GABARAPs required for autophagosome closure 29. Moreover, GABARAP can activate ULK1 complex to initiate autophagy, irrespective of its conjugation status 28. Indeed, this is also reflected in C. elegans homolog ...

[5] = weak interaction: N fixed to 1 upon fitting

Sequence | preference GABARAP versus LC3B [1] | ΔH ([2]; ITC, 25°C, pH 7.0) [kcal/mol] | ΔG ([2]; ITC, 25°C, pH 7.0) [kcal/mol] | ΔS ([2]; ITC, 25°C, pH 7.0) | −T × ΔS ([2]; ITC, 25°C, pH 7.0) [kcal/mol] | N (number of binding sites) [2, 5] | ΔH ([3]; ITC, 25°C, pH 7.0) [kcal/mol] | ΔG ([3]; ITC, 25°C, pH 7.0) [kcal/mol] | ΔS ([3]; ITC, 25°C, pH 7.0) | −T × ΔS ([3]; ITC, 25°C, pH 7.0) | N (number of binding sites) [3, 5] | KA ([2]; ITC, 25°C, pH 7.0) | N (number of binding sites) ([2]; ITC, 25°C, pH 7.0) | KA ([3]; ITC, 25°C, pH 7.0) | N (number of binding sites) ([3]; ITC, 25°C, pH 7.0) | subfamily specificity [4]
ESDWVAVRP [JMY, LIR peptide 10–18] | strong preference for GABARAP versus LC3B |  |  |  |  |  |  |  |  |  |  |  |  |  |  | 
GAMGPQQEDEAVNVQYPD [PLEKHM1‐LIR W635A] |  | -0.8 ± 0.1 | -5.44 | +15.4 cal mol^−1 K^−1 | -4.59 | 1 ^a | -1.1 ± 0.1 | -5.40 | +14.4 cal mol^−1 K^−1 | -4.29 kcal/mol | 1 ^a |  |  |  |  | 
GAMGPQQEDEWCILQYPD [PLEKHM1‐LIR VNV‐CIL] |  | -7.9 ± 0.1 | -8.84 | +3.30 cal mol^−1 K^−1 | -0.98 |  | -9.2 ± 0.1 | -9.62 | +1.49 cal mol^−1 K^−1 | -0.44 kcal/mol |  | 3.03 ± 0.27 ×10^6 M^−1 | 1.06 ± 0.01 | 11.3 ± 0.38 ×10^6 M^−1 | 1.07 ± 0.01 | 
GAMGPQQEDEWGNVQYPD [PLEKHM1‐LIR V636G] |  | -1.7 ± 0.1 | -5.42 | +12.4 cal mol^−1 K^−1 | -3.70 | 1 ^a | -7.5 ± 0.1 | -5.83 | −5.66 cal mol^−1 K^−1 | +1.69 kcal mol^−1 | 1 ^a |  |  | 0.02 ± 0.00 ×10^6 M^−1 |  | 
GAMGPQQEDEWVGVQYPD [PLEKHM1‐LIR N637G] |  | -1.4 ± 0.1 | -5.87 | +15.0 cal mol^−1 K^−1 | -4.47 | 1 ^a | -6.7 ± 0.1 | -6.97 | +1.07 cal mol^−1 K^−1 | -0.32 kcal/mol |  | 0.02 ± 0.01 ×10^6 M^−1 |  | 0.13 ± 0.01 ×10^6 M^−1 | 1.17 ± 0.04 | 
SEDYIIILP [NBR1, LIR peptide 729–737] |  |  |  |  |  |  |  |  |  |  |  |  |  |  |  | GABARAP‐L1‐specific receptor
TDDFVLVPH [ULK2, LIR peptide 350–358] | clear specificity towards GABARAP versus LC3B |  |  |  |  |  |  |  |  |  |  |  |  |  |  | 
TDDFVMVPA [ULK1, LIR peptide 354–362] | clear specificity towards GABARAP versus LC3B |  |  |  |  |  |  |  |  |  |  |  |  |  |  | 
